Data published in patent US20080145427A1, “Dosage Forms Providing Controlled and Immediate Release of Cholesteryl Ester Transfer Protein Inhibitors and Immediate Release of Hmg-Coa Reductase Inhibitors” (priority 2005, published 2008).

Experiment: Aqueous solubility of torcetrapib
Type: physicochemical
Conditions: aqueous environment, at about 22° C. unless otherwise specified
Description: The CETP inhibitor may be any compound capable of inhibiting the cholesteryl ester transfer protein. The CETP inhibitor is typically “sparingly water-soluble,” which means that the CETP inhibitor has a minimum aqueous solubility of less than about 1 to 2 mg/mL at any physiologically relevant pH (e.g., pH 1-8) and at about 22° C. Many CETP inhibitors are “substantially water-insoluble,” which means that the CETP inhibitor has a minimum aqueous solubility of less than about 0.01 mg/mL (or 10 μg/mL) at any physiologically relevant pH (e.g., pH 1-8) and at about 22° C. (Unless otherwise specified, reference to aqueous solubility herein and in the claims is determined at about 22° C.) Compositions of the present invention find greater utility as the solubility of the CETP inhibitors decreases, and thus are preferred for CETP inhibitors with solubilities less than about 10 μg/mL, and even more preferred for CETP inhibitors with solubilities less than about 1 μg/mL. Many CETP inhibitors have even lower solubilities (some even less than 0.1 μg/mL), and require dramatic concentration enhancement to be sufficiently bioavailable upon oral dosing for effective plasma concentrations to be reached at practical doses. […]

CCOC(=O)N1c2ccc(C(F)(F)F)cc2[C@@H](N(Cc2cc(C(F)(F)F)cc(C(F)(F)F)c2)C(=O)OC)C[C@H]1CC [torcetrapib, [2R,4S]-4-[(3,5-bis-trifluoromethyl-benzyl)-methoxycarbonyl-amino]-2-ethyl-6-trifluoromethyl-3,4-dihydro-2H-quinoline-1-carboxylic acid ethyl ester]
solubility: < 0.04 µg/mL
